From patent US20210355109A1, “CRYSTAL FORM OF MALEATE OF TYROSINE KINASE INHIBITOR AND PREPARATION METHOD THEREFOR” (JIANGSU HENGRUI MEDICINE CO., LTD., priority 2018, published 2021)

Experiments:
Type in all cases: physicochemical
[1] = Influencing-factor stability of I crystal form and amorphous form, purity by HPLC (Agilent1200 DAD); settings: for stability after long-term storage (in words): high temperature, high humidity
Text: The stability of the I crystal form of the compound represented by formula (I) was investigated. The purity of the crystal form was detected by Agilent1200 DAD high performance liquid chromatography system, and Waters symmetry C18, (250*4.6 mm, 5 μm) was used as the detection column, mobile phase: sodium dihydrogen phosphate/ACN/H2O, detection wavelength: 261 nm.

[2] = Influencing-factor stability of I and IV crystal forms, purity by HPLC (Thermo Ultimate3000DAD); settings: for crystal stability (in words): conditions of light, high temperature, and high humidity
Text: The stability of the I and IV crystal form of the compound represented by formula (I) was investigated. The purity of the crystal forms was detected by Thermo Ultimate3000DAD high-performance liquid chromatography system, and Waters symmetry C18, (250*4.6 mm, 5 μm) was used as the detection chromatographic column, mobile phase: sodium dihydrogen phosphate/ACN/H2O, detection wavelength: 261 nm.

[3] = Solid properties / fluidity of crystal form

| purity % ([1]; 40° C., day 0) | purity % ([1]; 40° C., day 5) | purity % ([1]; 40° C., day 10) | purity % ([1]; 40° C., day 30) | purity % ([1]; RH 75%, day 0) | purity % ([1]; RH 75%, day 5) | purity % ([1]; RH 75%, day 10) | purity % ([1]; RH 75%, day 30) | purity % ([1]; RH 90%, day 0) | purity % ([1]; RH 90%, day 5) | purity % ([1]; RH 90%, day 10) | purity % ([1]; RH 90%, day 30) | purity % ([1]; illumination, day 0) | purity % ([1]; illumination, day 5) | purity % ([1]; illumination, day 10) | purity % ([1]; illumination, day 30) | purity % ([2]; 40° C., day 0) | purity % ([2]; 40° C., day 5) | purity % ([2]; 40° C., day 10) | purity % ([2]; 40° C., day 30) | Structure (SMILES) | other results |
| --- | --- | --- | --- | --- | --- | --- | --- | --- | --- | --- | --- | --- | --- | --- | --- | --- | --- | --- | --- | --- | --- |
| 99.56% | 99.55% | 99.51% | 99.43% | 99.56% | 99.53% | 99.53% | 99.52% | 99.56% | 99.53% | 99.54% | 99.51% | 99.56% | 99.35% | 99.29% | 99.00% | 99.83% | 99.78% | 99.77% | 99.69% | CCOc1cc2ncc(C#N)c(Nc3ccc(OCc4ccccn4)c(Cl)c3)c2cc1NC(=O)/C=C/[C@H]1CCCN1C.O=C(O)/C=C\C(=O)O [I crystal form] | stability after long-term storage (in words) ([1]; illumination): good physical and chemical stability; purity % ([2]; 60° C., day 0): 99.83%; purity % ([2]; 60° C., day 5): 99.64%; purity % ([2]; 60° C., day 10): 99.51%; purity % ([2]; 60° C., day 30): 99.24%; purity % ([2]; RH 75%, day 0): 99.83%; purity % ([2]; RH 75%, day 5): 99.81%; purity % ([2]; RH 75%, day 10): 99.81%; purity % ([2]; RH 75%, day 30): 99.68%; purity % ([2]; RH 90%, day 0): 99.83%; purity % ([2]; RH 90%, day 5): 99.81%; purity % ([2]; RH 90%, day 10): 99.82%; purity % ([2]; RH 90%, day 30): 99.82%; crystal stability (in words) [2]: good crystal stability; purity % ([2]; illumination, day 0): 99.83%; purity % ([2]; illumination, day 5): 99.68%; purity % ([2]; illumination, day 10): 99.59%; purity % ([2]; illumination, day 30): 99.29% |
| – | – | – | – | – | – | – | – | – | – | – | – | – | – | – | – | – | – | – | – | CCOc1cc2ncc(C#N)c(Nc3ccc(OCc4ccccn4)c(Cl)c3)c2cc1NC(=O)/C=C/[C@H]1CCCN1C.O=C(O)/C=C\C(=O)O [II crystal form] | fluidity [3]: poor |
| – | – | – | – | – | – | – | – | – | – | – | – | – | – | – | – | 99.94% | 99.92% | 99.93% | 99.85% | CCOc1cc2ncc(C#N)c(Nc3ccc(OCc4ccccn4)c(Cl)c3)c2cc1NC(=O)/C=C/[C@H]1CCCN1C.O=C(O)/C=C\C(=O)O [IV crystal form] | purity % ([2]; 60° C., day 0): 99.94%; purity % ([2]; 60° C., day 5): 99.83%; purity % ([2]; 60° C., day 10): 99.77%; purity % ([2]; 60° C., day 30): 99.50%; purity % ([2]; RH 75%, day 0): 99.94%; purity % ([2]; RH 75%, day 5): 99.93%; purity % ([2]; RH 75%, day 10): 99.94%; purity % ([2]; RH 75%, day 30): 99.94%; purity % ([2]; RH 90%, day 0): 99.94%; purity % ([2]; RH 90%, day 5): 99.93%; purity % ([2]; RH 90%, day 10): 99.94%; purity % ([2]; RH 90%, day 30): 99.93%; crystal stability (in words) [2]: good crystal stability; purity % ([2]; illumination, day 0): 99.94%; purity % ([2]; illumination, day 5): 99.92%; purity % ([2]; illumination, day 10): 99.92%; purity % ([2]; illumination, day 30): 99.85% |
| 99.31% | 99.21% | 99.13% | 98.57% | 99.31% | 99.35% | 99.33% | 99.09% | 99.31% | 95.76% | 94.05% | 85.09% | 99.31% | 98.04% | 96.65% | 93.48% | – | – | – | – | CCOc1cc2ncc(C#N)c(Nc3ccc(OCc4ccccn4)c(Cl)c3)c2cc1NC(=O)/C=C/[C@H]1CCCN1C.O=C(O)/C=C\C(=O)O [amorphous, reference compound] | stability after long-term storage (in words) ([1]; illumination, listed as amorphous form): poor stability |
